The record followed here is patent US10273503B2, “Compounds and methods for enhancing viral gene transfer to human hematopoietic cells” (UNIVERSTÉ DE MONTRÉAL, priority 2015, dated 2019).

SMILES strings stand for the structures. pEC50: −log10 of the molar value.

The subject of assay [1] is human CD34+ cells. In words: Expansion of human CD34+ cells (EC50, CD34+CD45RA- cell count). The format is cell-based. The settings on record: concentration that results in a 50% increase in CD34+CD45RA- cell count compared to vehicle cultures (DMSO); for pEC50: Homo sapiens, read-out: Biological data (EC50)*.
The subject of assay [2] is human CD34+ CB cells. The class given is cell-based. Particulars: for gene transfer efficiency to human CD34+ CB cells and CD34+ subsets, variants of Cmpd1: prestimulated 16 hours and transduced 6 hours in presence of compound, FACS after 3 additional days (FIGS. 16A, 16B). On the procedure:
The cells were then exposed for 6 hours to a GFP lentiviral vector (10^6 iu/mL) in the same medium. […] At the end of the culture media, cells were harvested, stained for CD34 and analysed by flow cytometry.
The vector constructs were sequence-verified. […] Virus-containing supernatants were concentrated by ultracentrifugation to achieve titers of 0.5×10^9 to 5×10^9 infectious units/ml. Viral titers were determined by transducing HeLa cells with three dilutions of the lentiviral vector.
Umbilical cord blood (CB) and mobilized peripheral blood (mPB) cells were collected with consent according to procedures approved by the Research Ethics Board of the University of British Columbia. CD34^+ enriched adult bone marrow cells were purchased from […] Technologies. CD34^+ CB and mPB cells were enriched to >90% purity using first RosetteSep™ CD34 preenrichment cocktail ([…] Technologies) followed by positive selection using magnetic beads (EasySep kit, […] Technologies). In some cases additional enrichment was done by sorting CD34^+ cells using an Influx II sorter (BD Bioscience). […] All flow cytometric analysis was performed using a LSRII Fortessa® (BD Biosciences).

The subject of assay [3] is macaque umbilical cord blood CD34+ cells. Particulars: after transplantation of co-cultured macaque cord blood CD34+ cells.

With `COC(=O)c1ccc2c(c1)[nH]c1nc(Cc3ccccc3)nc(SCCCN3CCCCC3)c12` [Cmpd 6, methyl 2-benzyl-4-((3-(piperidin-1-yl)propyl)thio)-9H-pyrimido[4,5-b]indole-7-carboxylate], the pEC50 (usually −log10 of the EC50, conventionally taken in molar units) in assay [1] is 6.30 to 6.60. The “gene transfer efficiency to human CD34+ CB cells and CD34+ subsets, variants of Cmpd1” value (“gene transfer efficiency” below) in assay [2] is reported as “increase gene transfer efficiency”.
For the compound `COC(=O)c1ccc2c(c1)[nH]c1nc(-c3ccccc3)nc(NCCCN3CCCCC3)c12` [Cmpd 8, methyl 2-phenyl-4-((3-(piperidin-1-yl)propyl)amino)-9H-pyrimido[4,5-b]indole-7-carboxylate 2,2,2-trifluoroacetate], the “Biological data (EC50)*” value in assay [1] is “inactive”. The “gene transfer efficiency” value in assay [2] was “not observed”.
In the case of `CCCOC(=O)c1ccc2c(c1)[nH]c1ncnc(NCCCN3CCCCC3)c12` [Cmpd 7, propyl 4-((3-(piperidin-1-yl)propyl)amino)-9H-pyrimido[4,5-b]indole-7-carboxylate], the pEC50 in assay [1] is < 6.00. The “gene transfer efficiency” value in assay [2] is “not observed”.
The matching figures for `CN(CCCNC(=O)CNC(=O)CNC(=O)CN)CCCNc1nc(Cc2ccccc2)nc2[nH]c3cc(-c4nnn(C)n4)ccc3c12` [Cmpd 5, 2-amino-N-(2-((2-((3-((3-((2-benzyl-7-(2-methyl-2H-tetrazol-5-yl)-9H-pyrimido[4,5-b]indol-4-yl)amino)propyl)(methyl)amino)propyl)amino)-2-oxoethyl)amino)-2-oxoethyl)acetamide]: 6.30 to 6.60 and “increase gene transfer efficiency”.
As for `COC(=O)c1ccc2c(c1)[nH]c1nc(Cc3ccccc3)nc(N(C)CCCN3CCCCC3)c12` [Cmpd 3], the pEC50 in assay [1] was > 7.00. In addition, in assay [2], the “gene transfer efficiency” value is “increase gene transfer efficiency”.
Consider `CC(C)n1cnc2c(NCCc3ccc(O)cc3)nc(-c3csc4ccccc34)nc21` [SR1, StemRegenin 1, reference compound], for which the “proportion of primate CD45+ cells in the blood of transplanted mice” value in assay [3] is “not obtained”. In assay [2] (SR1 0.75 μM, assessed 3 days post-infection on CD34+ cells from cord blood), the “enhancement of lentiviral-mediated gene transfer (in words)” value is on record as “not observed”.
In the case of `COC(=O)c1ccc2c(c1)[nH]c1nc(Cc3cccc(F)c3)nc(NCCCN3CCCCC3)c12` [Cmpd 4], the pEC50 in assay [1] is > 7.00. Further, the “gene transfer efficiency” value in assay [2] is listed as “increase gene transfer efficiency”.
For `COC(=O)c1ccc2c(c1)[nH]c1nc(Cc3ccccc3)nc(NCC(O)CN3CCCCC3)c12` (centres unmarked) [Cmpd 51], in assay [1], the pEC50 is > 7.00.
For `CNC(=O)c1ccc2c(c1)[nH]c1nc(Cc3ccccc3)nc(NCCCN3CCCCC3)c12` [Cmpd 59], the pEC50 in assay [1] is < 6.00.
On the same count and under the same terms, as for `CN(C)C1CCC(Nc2nc(Cc3ccccc3)nc3[nH]c4cc(-c5nnn(C)n5)ccc4c23)CC1` (centres unmarked) [Cmpd 46], the figure is > 7.00; as for `COC(=O)c1ccc2c(c1)[nH]c1cc(Cc3ccsc3)nc(N[C@H]3CC[C@H](N)CC3)c12` [Cmpd 88], 6.60 to 7.00.
As to `COC(=O)c1ccc2c(c1)[nH]c1nc(Cc3ccccc3)nc(OCCCN3CCCCC3)c12` [Cmpd 47], in assay [1], the pEC50 is 6.00 to 6.30.
Turning to `COC(=O)c1ccc2c(c1)[nH]c1cc(Cc3ccccc3)nc(NCCCN3CCCCC3)c12` [Cmpd 77], the pEC50 in assay [1] is > 7.00.
Same read-out and setting: as for `COC(=O)c1ccc2c(c1)[nH]c1nc(C(OC)c3ccccc3)nc(NCCCN3CCCCC3)c12` (centres unmarked) [Cmpd 28], the figure is > 7.00.
With `Cn1nnc(-c2ccc3c(c2)[nH]c2cc(Cc4ccccc4)nc(NCCCN4CCCCC4)c23)n1` [Cmpd 80], the pEC50 in assay [1] is 6.60 to 7.00.
`C#CCNCCCN(C)CCCNc1nc(Cc2ccccc2)nc2[nH]c3cc(C(=O)OC)ccc3c12` [Cmpd 54]: the “Biological data (EC50)*” value in assay [1] is reported as “F (F = compound showed >1.3 fold expansion)”.
